Numbered stars: 1 amine (or outer) side, 2 acyl side, 3 side chain; on linkers, the order of the positions; unused ones are H or OH. Bridge positions count the residues as written; N and C are the ends. Square brackets hold non-standard residues; d marks the D form. Peptide text beside a SMILES is read from it. * marks the point of attachment. pTerphenylCO(4''-OnC5H11) = CCCCCOc1ccc(-c2ccc(-c3ccc(C(=O)*)cc3)cc2)cc1; Orn(4R-OH,5R-OH) = O=C([C@H](C[C@@H](O)[C@@H](O)N[*:3])N[*:1])[*:2]; hTyr(3S-OH,4S-OH) = N[C@H](C(=O)O)[C@H](O)[C@@H](O)c1ccc(O)cc1; Pro(3S-OH,4S-Me) = C[C@H]1CN[C@H](C(=O)O)[C@H]1O; Hyp = O=C(O)[C@@H]1C[C@@H](O)CN1
Assays:
Format in all cases: functional
[1] = system: Aspergillus fumigatus; test: Antifungal activity against Aspergillus fumigatus isolate 0002-021 after 24 hrs by CLSI M38-A broth microdilution method in presence of 50% human serum; conditions: isolate 0002-021, 24 h
[2] = system: Aspergillus niger; test: Antifungal activity against Aspergillus niger isolate 0001-073 after 24 hrs by CLSI M38-A broth microdilution method in presence of RPMI 1640 medium; conditions: isolate 0001-073, 24 h
[3] = system: Candida parapsilosis; test: Antifungal activity against Candida parapsilosis isolate 0026-003 after 24 hrs by CLSI M27-A2 broth microdilution method in presence of RPMI 1640 medium; conditions: Lodderomyces parapsilosis, isolate 0026-003, 24 h
[4] = system: Candida tropicalis; test: Antifungal activity against Candida tropicalis isolate 0050-028 after 24 hrs by CLSI M27-A2 broth microdilution method in presence of 50% human serum; conditions: isolate 0050-028, 24 h
[5] = system: Aspergillus flavus; test: Ratio of MIC50 for Aspergillus flavus isolate 0001-033 in presence of 50% human serum to MIC50 for Aspergillus flavus isolate 0001-033 in presence of RPMI 1640 medium
[6] = system: Clavispora lusitaniae; test: Antifungal activity against Candida lusitaniae isolate 0015-049 after 24 hrs by CLSI M27-A2 broth microdilution method in presence of 50% human serum
[7] = system: Candida albicans; test: Antifungal activity against Candida albicans isolate 0021-076 after 24 hrs by CLSI M27-A2 broth microdilution method in presence of RPMI 1640 medium; conditions: isolate 0021-076, 24 h
[8] = system: Candida albicans; test: Ratio of MIC50 for Candida albicans isolate 0012-025 in presence of 50% human serum to MIC50 for Candida albicans isolate 0012-025 in presence of RPMI 1640 medium
[9] = system: Aspergillus terreus; test: Antifungal activity against Aspergillus terreus isolate 0031-087 after 48 hrs by CLSI M38-A broth microdilution method in presence of 50% human serum; conditions: isolate 0031-087, 48 h
[10] = system: Aspergillus terreus; test: Ratio of MIC50 for Aspergillus terreus isolate 0031-087 in presence of 50% human serum to MIC50 for Aspergillus terreus isolate 0031-087 in presence of RPMI 1640 medium
[11] = system: Aspergillus flavus; test: Antifungal activity against Aspergillus flavus isolate 0001-033 after 24 hrs by CLSI M38-A broth microdilution method in presence of 50% human serum; conditions: isolate 0001-033, 24 h
[12] = system: Aspergillus fumigatus; test: Ratio of MIC50 for Aspergillus fumigatus isolate 0002-0016 in presence of 50% human serum to MIC50 for Aspergillus fumigatus isolate 0002-0016 in presence of RPMI 1640 medium
[13] = system: Clavispora lusitaniae; test: Antifungal activity against Candida lusitaniae isolate 0013-002 after 24 hrs by CLSI M27-A2 broth microdilution method in presence of RPMI 1640 medium; conditions: isolate 0013-002, 24 h
[14] = system: Aspergillus fumigatus; test: Antifungal activity against Aspergillus fumigatus isolate 0002-0016 after 24 hrs by CLSI M38-A broth microdilution method in presence of 50% human serum; conditions: isolate 0002-0016, 24 h
[15] = system: Nakaseomyces glabratus; test: Antifungal activity against Candida glabrata isolate 0049-038 after 24 hrs by CLSI M27-A2 broth microdilution method in presence of RPMI 1640 medium; conditions: isolate 0049-038, 24 h
[16] = system: Nakaseomyces glabratus; test: Antifungal activity against Candida glabrata isolate 0049-038 after 24 hrs by CLSI M27-A2 broth microdilution method in presence of 50% human serum; conditions: isolate 0049-038, 24 h
[17] = system: Pichia kudriavzevii; test: Ratio of MIC50 for Candida krusei isolate 0001-058 in presence of 50% human serum to MIC50 for Candida krusei isolate 0001-058 in presence of RPMI 1640 medium
[18] = system: Candida albicans; test: Antifungal activity against Candida albicans isolate 0021-076 after 24 hrs by CLSI M27-A2 broth microdilution method in presence of 50% human serum; conditions: isolate 0021-076, 24 h
[19] = system: Candida parapsilosis; test: Antifungal activity against Candida parapsilosis ATCC 22019 after 24 hrs by CLSI M27-A2 broth microdilution method in presence of RPMI 1640 medium; conditions: Lodderomyces parapsilosis, ATCC 22019, 24 h
[20] = system: Pichia kudriavzevii; test: Antifungal activity against Candida krusei isolate 0001-058 after 24 hrs by CLSI M27-A2 broth microdilution method in presence of RPMI 1640 medium; conditions: isolate 0001-058, 24 h
[21] = system: Pichia kudriavzevii; test: Antifungal activity against Candida krusei isolate 0001-058 after 24 hrs by CLSI M27-A2 broth microdilution method in presence of 50% human serum; conditions: isolate 0001-058, 24 h
[22] = system: Candida albicans; test: Antifungal activity against Candida albicans isolate 0012-025 after 24 hrs by CLSI M27-A2 broth microdilution method in presence of RPMI 1640 medium; conditions: isolate 0012-025, 24 h
[23] = system: Clavispora lusitaniae; test: Ratio of MIC50 for Candida lusitaniae isolate 0015-049 in presence of 50% human serum to MIC50 for Candida lusitaniae isolate 0015-049 in presence of RPMI 1640 medium
[24] = system: Candida albicans; test: Ratio of MIC50 for Candida albicans isolate 0021-076 in presence of 50% human serum to MIC50 for Candida albicans isolate 0021-076 in presence of RPMI 1640 medium
[25] = system: Aspergillus fumigatus; test: Ratio of MIC50 for Aspergillus fumigatus isolate 0002-021 in presence of 50% human serum to MIC50 for Aspergillus fumigatus isolate 0002-021 in presence of RPMI 1640 medium
[26] = system: Aspergillus niger; test: Antifungal activity against Aspergillus niger isolate 0001-073 after 24 hrs by CLSI M38-A broth microdilution method in presence of 50% human serum; conditions: isolate 0001-073, 24 h
[27] = system: Candida parapsilosis; test: Antifungal activity against Candida parapsilosis isolate 0036-030 after 24 hrs by CLSI M27-A2 broth microdilution method in presence of RPMI 1640 medium; conditions: Lodderomyces parapsilosis, isolate 0036-030, 24 h
[28] = system: Nakaseomyces glabratus; test: Antifungal activity against Candida glabrata isolate 0022-012 after 24 hrs by CLSI M27-A2 broth microdilution method in presence of 50% human serum; conditions: isolate 0022-012, 24 h
[29] = system: Aspergillus terreus; test: Antifungal activity against Aspergillus terreus isolate 0031-087 after 48 hrs by CLSI M38-A broth microdilution method in presence of RPMI 1640 medium; conditions: isolate 0031-087, 48 h
[30] = system: Pichia kudriavzevii; test: Antifungal activity against Candida krusei ATCC 6258 after 24 hrs by CLSI M27-A2 broth microdilution method in presence of RPMI 1640 medium; conditions: ATCC 6258, 24 h
[31] = system: Nakaseomyces glabratus; test: Ratio of MIC50 for Candida glabrata isolate 0049-038 in presence of 50% human serum to MIC50 for Candida glabrata isolate 0049-038 in presence of RPMI 1640 medium
[32] = system: Pichia kudriavzevii; test: Antifungal activity against Candida krusei isolate 0013-054 after 24 hrs by CLSI M27-A2 broth microdilution method in presence of 50% human serum; conditions: isolate 0013-054, 24 h
[33] = system: Aspergillus fumigatus; test: Antifungal activity against Aspergillus fumigatus isolate 0002-020 after 24 hrs by CLSI M38-A broth microdilution method in presence of 50% human serum; conditions: isolate 0002-020, 24 h

Structure (SMILES) | MIC50 [1] | MIC50 [2] | MIC50 [3] | MIC50 [4] | Ratio [5] | MIC50 [6] | MIC50 [7] | Ratio [8] | MIC50 [9] | Ratio [10] | MIC50 [11] | Ratio [12] | MIC50 [13] | MIC50 [14] | MIC50 [15] | MIC50 [16] | Ratio [17] | MIC50 [18] | MIC50 [19] | MIC50 [20] | also measured
CC[C@H](C)C[C@H](C)CCCCCCCCC(=O)N[C@H]1C[C@@H](O)[C@@H](NCCN)NC(=O)[C@@H]2[C@@H](O)CCN2C(=O)[C@H]([C@H](O)CCN)NC(=O)[C@H]([C@H](O)[C@@H](O)c2ccc(O)cc2)NC(=O)[C@@H]2C[C@@H](O)CN2C(=O)[C@H]([C@@H](C)O)NC1=O [CASPOFUNGIN] | 128 µg/mL | 0.0004 µg/mL | 1 µg/mL | 2 µg/mL | 4 | 1 µg/mL | 0.5 µg/mL | 1 | 0.5 µg/mL | 1 | 128 µg/mL | 16 | 0.25 µg/mL | 128 µg/mL | 0.5 µg/mL | 0.5 µg/mL | 1 | 4 µg/mL | 0.5 µg/mL | 0.5 µg/mL | MIC50 [21]: 0.5 µg/mL; MIC50 [22]: 0.25 µg/mL; Ratio [23]: 2; Ratio [24]: 8; Ratio [25]: 128; MIC50 [26]: 0.25 µg/mL; MIC50 [27]: 1 µg/mL; MIC50 [28]: 0.5 µg/mL; MIC50 [29]: 0.5 µg/mL; MIC50 [30]: 0.5 µg/mL; Ratio [31]: 1; MIC50 [32]: 2 µg/mL; MIC50 [33]: 128 µg/mL
CCCCCOc1ccc(-c2ccc(-c3ccc(C(=O)N[C@H]4C[C@@H](O)[C@@H](O)NC(=O)[C@@H]5[C@@H](O)[C@@H](C)CN5C(=O)[C@H]([C@@H](C)O)NC(=O)[C@H]([C@H](O)[C@@H](O)c5ccc(O)cc5)NC(=O)[C@@H]5C[C@@H](O)CN5C(=O)[C@H]([C@@H](C)O)NC4=O)cc3)cc2)cc1 [ANIDULAFUNGIN] ({pTerphenylCO(4''-OnC5H11)}-[Orn(4R-OH,5R-OH)]T[Hyp][hTyr(3S-OH,4S-OH)]T[Pro(3S-OH,4S-Me)]; lactam 1-C) | 128 µg/mL | 0.001 µg/mL | 2 µg/mL | 128 µg/mL | 32 | 1 µg/mL | 0.5 µg/mL | 16 | 0.25 µg/mL | 16 | 128 µg/mL | 64 | 0.002 µg/mL | 128 µg/mL | 0.0625 µg/mL | 2 µg/mL | 32 | 128 µg/mL | 0.5 µg/mL | 0.0313 µg/mL | MIC50 [21]: 1 µg/mL; MIC50 [22]: 0.0156 µg/mL; Ratio [23]: 8; Ratio [24]: 256; Ratio [25]: 64000; MIC50 [26]: 0.5 µg/mL; MIC50 [27]: 1 µg/mL; MIC50 [28]: 1 µg/mL; MIC50 [29]: 0.0156 µg/mL; MIC50 [30]: 0.125 µg/mL; Ratio [31]: 32; MIC50 [32]: 4 µg/mL; MIC50 [33]: 0.5 µg/mL
